Experimental data published in ChEMBL document CHEMBL1201862, “PubChem BioAssay data set” (2004).
Activity calls are given as the source filed them.

How the values were obtained:
[1] = viability of uninfected HEp-2 cells – cell-based, HTS, cytotoxicity control for RSV inhibitor project, dose response (AID 2410); type: functional; settings: human respiratory syncytial virus
[2] = system: H4; experiment: Luminescence Cell-Based Dose Response HTS to Identify Activators of 5'UTR Stem-Loop Driven Prion Protein mRNA Translation in H4 Neuroglioblastoma Cells. [Related pubchem assays: 1829 (Project Summary), 1814 (Primary HTS)]; type: functional; settings: Homo sapiens
[3] = Luminescence Cell-Based Dose Response HTS to Identify Activators of Luciferase Translation or Activity in H4 […] Cells. [Related pubchem assays: 1829 (Project Summary), 1814 (Primary HTS)]; type: functional
[4] = biological target: T1, Cytochrome P450 1A2 (Homo sapiens, UniProt P05177);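 note: PubChem cytochrome P450 panel assay, CYP1A2 panel member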
T1 sequence (P05177 whole entry): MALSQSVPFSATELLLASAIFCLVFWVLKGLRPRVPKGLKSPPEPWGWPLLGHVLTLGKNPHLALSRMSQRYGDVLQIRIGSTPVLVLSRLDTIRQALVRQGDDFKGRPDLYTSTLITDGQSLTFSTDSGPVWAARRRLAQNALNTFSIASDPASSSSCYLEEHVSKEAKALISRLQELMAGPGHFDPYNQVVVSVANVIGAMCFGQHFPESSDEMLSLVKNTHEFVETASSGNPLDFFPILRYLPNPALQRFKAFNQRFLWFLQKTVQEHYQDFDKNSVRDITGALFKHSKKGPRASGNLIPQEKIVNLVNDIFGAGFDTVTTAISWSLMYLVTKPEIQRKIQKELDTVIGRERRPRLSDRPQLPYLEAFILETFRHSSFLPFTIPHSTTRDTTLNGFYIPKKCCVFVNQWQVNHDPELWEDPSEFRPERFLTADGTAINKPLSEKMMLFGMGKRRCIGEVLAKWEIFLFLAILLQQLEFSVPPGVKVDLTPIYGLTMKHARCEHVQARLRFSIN

[5] = biological target: Cytochrome P450 3A4 (Homo sapiens, UniProt P08684);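 note: CYP3A4 tested as one member of a cytochrome P450 panel screen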
[6] = biological target: Cytochrome P450 2C19 (Homo sapiens, UniProt P33261); experiment: Cytochrome panel assay with activity outcomes. Panel member name: p450-cyp2c19 Compounds with AC50 equal or less than 10 uM are considered active; type: functional; settings: read-out: AC50
[7] = biological target: Cytochrome P450 2D6 (Homo sapiens, UniProt P10635)
[8] = NIH-3T3 fibroblast cytotoxicity, dose response, cytotoxicity control, cell-based, fluorescence, Alamar Blue, secondary assay (AID 2327); type: functional;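 note: NIH-3T3 mouse fibroblasts cultured with fluconazole at 8 µg/mL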
[9] = fluconazole-exposed Candida albicans growth modulators – fluorescence, retest, confirmation (AID 2467); type: functional, cell-based
[10] = biological target: Cytochrome P450 2C9 (Homo sapiens, UniProt P11712)
[11] = biological target: T2, Fatty acid synthase (Homo sapiens, UniProt P49327); experiment: inhibition of human FAS-TE enzyme activity – biochemical, endpoint fluorescence intensity, uHTS hits, dose response (AID 624327); type: functional;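 note: fluorescence from hydrolysis of an O-methyl fluorescein acyl ester substrate by the enzyme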
[12] = biological target: T2, Fatty acid synthase; experiment: inhibition of human FAS-TE enzyme activity – biochemical, kinetic fluorescence intensity, dose response (AID 624326); type: functional;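 note: rate of fluorescence rise from hydrolysis of a fluorogenic O-methyl fluorescein ester substrate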
[13] = NIH3T3 cell viability loss – ATP luminescence, mouse fibroblasts, counter-screen, dose response (AID 2010); type: functional, cell-based;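 note: cells exposed to compound for about 90 hours before reading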
[14] = Trypanosoma cruzi growth suppression in host cells – NIH3T3 host cells, beta-gal luminescence, confirmation (AID 2044); type: functional, cell-based;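 note: intracellular parasites grown in NIH/3T3 mouse fibroblasts as host cells; luminescent beta-galactosidase reporter signal from transgenic T. cruzi replicating inside host cells; inhibitors lower the luminescence signal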

Sequence of Cytochrome P450 2D6 (P10635 whole entry): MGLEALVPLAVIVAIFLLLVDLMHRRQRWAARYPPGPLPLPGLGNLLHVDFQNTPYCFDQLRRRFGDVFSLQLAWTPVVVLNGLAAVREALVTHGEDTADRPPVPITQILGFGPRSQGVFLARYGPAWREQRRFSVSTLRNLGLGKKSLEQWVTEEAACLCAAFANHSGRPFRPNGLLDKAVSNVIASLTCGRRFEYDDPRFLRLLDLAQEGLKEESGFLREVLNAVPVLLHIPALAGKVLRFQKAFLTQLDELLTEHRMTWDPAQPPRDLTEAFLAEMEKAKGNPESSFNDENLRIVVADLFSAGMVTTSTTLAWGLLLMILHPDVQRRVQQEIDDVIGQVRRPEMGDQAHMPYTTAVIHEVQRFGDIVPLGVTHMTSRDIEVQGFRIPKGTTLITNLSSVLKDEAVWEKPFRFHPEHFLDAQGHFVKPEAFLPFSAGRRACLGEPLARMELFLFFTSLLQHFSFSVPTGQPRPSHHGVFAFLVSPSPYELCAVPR
T2 sequence (P49327 whole entry): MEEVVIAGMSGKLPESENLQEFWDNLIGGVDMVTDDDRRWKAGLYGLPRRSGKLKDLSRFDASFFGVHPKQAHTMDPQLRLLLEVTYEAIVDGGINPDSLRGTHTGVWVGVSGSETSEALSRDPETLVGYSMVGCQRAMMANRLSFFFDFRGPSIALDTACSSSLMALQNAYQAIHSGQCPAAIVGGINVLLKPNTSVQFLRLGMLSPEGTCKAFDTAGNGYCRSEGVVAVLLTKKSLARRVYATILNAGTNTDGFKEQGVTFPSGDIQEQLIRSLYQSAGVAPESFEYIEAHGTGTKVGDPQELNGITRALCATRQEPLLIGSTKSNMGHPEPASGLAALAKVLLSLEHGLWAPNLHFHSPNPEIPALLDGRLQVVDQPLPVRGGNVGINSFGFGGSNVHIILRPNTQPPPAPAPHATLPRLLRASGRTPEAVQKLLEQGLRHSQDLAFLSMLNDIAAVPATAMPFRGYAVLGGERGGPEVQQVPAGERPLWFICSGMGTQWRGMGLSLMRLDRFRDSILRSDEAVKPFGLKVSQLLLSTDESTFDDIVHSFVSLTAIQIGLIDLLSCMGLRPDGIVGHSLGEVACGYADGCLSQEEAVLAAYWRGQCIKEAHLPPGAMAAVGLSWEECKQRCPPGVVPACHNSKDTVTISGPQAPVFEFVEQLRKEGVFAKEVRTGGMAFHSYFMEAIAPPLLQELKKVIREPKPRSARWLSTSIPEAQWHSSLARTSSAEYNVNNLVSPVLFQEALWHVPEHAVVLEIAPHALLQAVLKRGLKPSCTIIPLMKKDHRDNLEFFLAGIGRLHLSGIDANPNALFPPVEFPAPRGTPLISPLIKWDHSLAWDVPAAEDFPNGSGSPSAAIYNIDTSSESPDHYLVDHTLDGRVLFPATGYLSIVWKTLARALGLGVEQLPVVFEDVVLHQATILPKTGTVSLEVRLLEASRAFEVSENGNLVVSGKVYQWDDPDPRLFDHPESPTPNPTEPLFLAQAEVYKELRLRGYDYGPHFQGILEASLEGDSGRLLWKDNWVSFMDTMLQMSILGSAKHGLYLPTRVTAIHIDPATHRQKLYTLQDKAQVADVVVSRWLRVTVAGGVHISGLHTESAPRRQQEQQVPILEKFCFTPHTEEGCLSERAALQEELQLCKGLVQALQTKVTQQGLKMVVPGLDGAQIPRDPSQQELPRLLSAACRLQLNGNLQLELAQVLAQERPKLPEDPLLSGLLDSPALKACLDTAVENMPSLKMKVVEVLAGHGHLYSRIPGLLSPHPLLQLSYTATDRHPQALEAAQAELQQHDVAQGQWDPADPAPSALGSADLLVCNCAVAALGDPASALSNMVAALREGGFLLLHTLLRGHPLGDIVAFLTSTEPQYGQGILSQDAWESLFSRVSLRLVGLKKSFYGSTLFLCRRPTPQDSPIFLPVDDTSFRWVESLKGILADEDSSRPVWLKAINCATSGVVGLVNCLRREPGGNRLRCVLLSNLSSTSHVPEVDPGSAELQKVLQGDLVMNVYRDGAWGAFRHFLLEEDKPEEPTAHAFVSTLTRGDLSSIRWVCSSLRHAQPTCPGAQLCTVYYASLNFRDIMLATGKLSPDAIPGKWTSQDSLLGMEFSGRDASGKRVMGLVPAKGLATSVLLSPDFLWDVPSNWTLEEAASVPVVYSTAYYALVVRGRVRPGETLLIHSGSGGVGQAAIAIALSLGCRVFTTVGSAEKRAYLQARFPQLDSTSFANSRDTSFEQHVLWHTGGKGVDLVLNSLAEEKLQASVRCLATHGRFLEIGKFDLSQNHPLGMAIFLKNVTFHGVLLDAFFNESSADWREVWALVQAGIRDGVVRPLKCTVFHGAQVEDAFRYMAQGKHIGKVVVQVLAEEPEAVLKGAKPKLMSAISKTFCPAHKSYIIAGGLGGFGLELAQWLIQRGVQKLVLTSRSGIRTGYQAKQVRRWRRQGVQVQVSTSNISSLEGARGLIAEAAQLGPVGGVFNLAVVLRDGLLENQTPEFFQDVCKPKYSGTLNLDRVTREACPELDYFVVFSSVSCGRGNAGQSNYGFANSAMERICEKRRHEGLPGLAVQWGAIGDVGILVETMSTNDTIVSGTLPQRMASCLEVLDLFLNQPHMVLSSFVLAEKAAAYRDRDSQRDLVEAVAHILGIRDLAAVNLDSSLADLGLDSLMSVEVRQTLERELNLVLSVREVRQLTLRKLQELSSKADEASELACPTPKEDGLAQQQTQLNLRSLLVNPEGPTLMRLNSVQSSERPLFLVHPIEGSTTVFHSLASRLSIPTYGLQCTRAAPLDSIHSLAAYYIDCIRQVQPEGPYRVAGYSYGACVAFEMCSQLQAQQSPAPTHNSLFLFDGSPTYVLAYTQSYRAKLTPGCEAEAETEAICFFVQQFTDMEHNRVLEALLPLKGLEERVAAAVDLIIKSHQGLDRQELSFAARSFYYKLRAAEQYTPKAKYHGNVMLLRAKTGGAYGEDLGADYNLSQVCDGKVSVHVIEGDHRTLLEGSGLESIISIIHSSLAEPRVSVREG
Sequence of Cytochrome P450 3A4 (P08684 whole entry): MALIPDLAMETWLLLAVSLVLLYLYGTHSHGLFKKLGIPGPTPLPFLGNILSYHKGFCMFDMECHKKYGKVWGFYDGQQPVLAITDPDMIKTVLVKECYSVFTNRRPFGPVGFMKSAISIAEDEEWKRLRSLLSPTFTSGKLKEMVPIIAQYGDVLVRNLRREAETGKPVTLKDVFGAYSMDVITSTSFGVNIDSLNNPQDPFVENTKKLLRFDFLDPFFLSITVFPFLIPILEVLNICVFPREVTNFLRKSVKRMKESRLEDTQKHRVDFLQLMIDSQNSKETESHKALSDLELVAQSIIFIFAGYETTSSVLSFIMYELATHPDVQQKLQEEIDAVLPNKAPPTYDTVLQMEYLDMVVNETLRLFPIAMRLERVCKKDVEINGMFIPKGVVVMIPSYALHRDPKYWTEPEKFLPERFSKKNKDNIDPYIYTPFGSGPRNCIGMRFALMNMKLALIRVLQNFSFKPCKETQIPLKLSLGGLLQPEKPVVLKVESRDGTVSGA
Sequence of Cytochrome P450 2C9 (P11712 whole entry): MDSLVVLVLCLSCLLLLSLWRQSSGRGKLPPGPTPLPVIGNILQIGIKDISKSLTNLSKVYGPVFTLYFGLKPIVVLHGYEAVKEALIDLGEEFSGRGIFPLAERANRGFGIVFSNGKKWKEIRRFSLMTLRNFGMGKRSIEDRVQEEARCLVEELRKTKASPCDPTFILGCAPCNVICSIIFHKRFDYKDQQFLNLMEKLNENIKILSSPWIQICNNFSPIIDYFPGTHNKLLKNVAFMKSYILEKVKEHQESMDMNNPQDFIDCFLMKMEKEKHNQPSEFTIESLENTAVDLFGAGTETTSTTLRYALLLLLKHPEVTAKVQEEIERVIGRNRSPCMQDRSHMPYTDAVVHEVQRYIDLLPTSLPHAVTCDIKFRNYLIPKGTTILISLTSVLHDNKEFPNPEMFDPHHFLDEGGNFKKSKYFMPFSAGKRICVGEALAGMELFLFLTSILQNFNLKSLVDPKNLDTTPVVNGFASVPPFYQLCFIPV
Sequence of Cytochrome P450 2C19 (P33261 whole entry): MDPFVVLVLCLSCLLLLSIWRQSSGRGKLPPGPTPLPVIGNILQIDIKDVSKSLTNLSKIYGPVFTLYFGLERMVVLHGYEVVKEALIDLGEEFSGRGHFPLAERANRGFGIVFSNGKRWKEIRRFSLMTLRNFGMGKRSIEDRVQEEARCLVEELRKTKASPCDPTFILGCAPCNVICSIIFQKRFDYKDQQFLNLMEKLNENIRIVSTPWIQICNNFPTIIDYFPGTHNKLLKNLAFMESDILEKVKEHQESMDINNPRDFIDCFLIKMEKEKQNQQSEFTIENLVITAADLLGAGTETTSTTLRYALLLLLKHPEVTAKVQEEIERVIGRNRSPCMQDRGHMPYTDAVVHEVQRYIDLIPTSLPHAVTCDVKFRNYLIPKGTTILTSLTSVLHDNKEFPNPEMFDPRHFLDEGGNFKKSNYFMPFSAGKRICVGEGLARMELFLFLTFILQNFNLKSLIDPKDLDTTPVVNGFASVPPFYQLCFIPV

Q: For `CC(C)(C)Nc1nc(-c2ccc3c(c2)CCN3C(=O)C2CC2)cs1`, which CC50 [1] is on record?
A: 25.2 µM (active)

Q: For `O=C(CN1CCC(n2nnc3ccccc32)CC1)Nc1ccc2c(c1)CCC2`, which CC50 [1] is on record?
A: 49.5 µM (active)

Q: Which results are given for `N#CC1=C2SC=C(c3ccc(Br)cc3)N2CCCC1=O`?
A: EC50 [2]: 16.9 µM (active); EC50 [3]: 0.864 µM (active)

Q: Which AC50 [4] does the source give for `C[C@]1(c2ccccc2)OC(C(=O)O)=CC1=O` here?
A: 39.8 µM (inconclusive)

Q: For `CO[C@H]1[C@H](O[C@H]2O[C@@H](C)[C@@H](O[C@@H]3C[C@](C)(O)[C@H](OC(=O)CC(C)C)[C@H](C)O3)[C@@H](N(C)C)[C@@H]2O)[C@@H](CC=O)C[C@@H](C)[C@@H](O)/C=C\C=C/C[C@@H](C)OC(=O)C[C@H]1OC(C)=O`, which AC50 [5] is on record?
A: 12.6 µM (inconclusive)

Q: Which AC50 [6] does the source give for `COC(=O)[C@@]1(Cc2ccc(F)cc2)[C@H]2c3cc(C(=O)N4CCCC4)n(Cc4c(CO)ncc(C)c4O)c3C[C@H]2CN1C(=O)c1ccccc1` here?
A: 39.8 µM (inconclusive)

Q: And the AC50 [4]?
A: 20 µM (inconclusive)

Q: Which AC50 [5] does the source give for `O=c1c(-c2cccc(Cl)c2)nc2cncnc2n1Cc1ccccc1Cl` here?
A: 12.6 µM (inconclusive)

Q: What about the AC50 [7] of the same compound?
A: 15.8 µM (inconclusive)

Q: With `COc1cccc2c1Oc1ncccc1N(C(=O)CCC(=O)NCc1ccccc1F)C2` as the compound, how does the EC50 [8] read?
A: 19.4 µM (inconclusive)

Q: And the EC50 [9]?
A: > 38 µM (not active)

Q: Which AC50 [5] does the source give for `COC(=O)c1cccc(NC(=O)CCCOc2ccccc2)c1` here?
A: 12.6 µM (inconclusive)

Q: For `COCC(=O)N1CCC2(CCCN(c3ccccc3)C2)CC1`, which AC50 [5] is on record?
A: 7.94 µM (inconclusive)

Q: Which EC50 [2] does the source give for `Cc1cccc(N(C)C(=O)c2cc3cc4ccc(C)cc4nc3o2)c1` here?
A: 14.3 µM (active)

Q: What about the EC50 [3] of the same compound?
A: 1.69 µM (active)

Q: For `COc1ccc(C2SCC(=O)Nc3c2c(C)nn3C2CCOC(C)(C)C2)cc1` (stereo not drawn), which AC50 [10] is on record?
A: 25.1 µM (inconclusive)

Q: What about the AC50 [6] of the same compound?
A: 39.8 µM (inconclusive)

Q: And the AC50 [5]?
A: 28.2 µM (inconclusive)

Q: With `COc1ccccc1N1CCN(C(=O)C(C)NC(=O)c2cccc([N+](=O)[O-])c2)CC1` (stereo not drawn) as the compound, how does the IC50 [11] read?
A: 2.72 µM (active)

Q: And the IC50 [12]?
A: 1.48 µM (active)

Q: Which AC50 [5] does the source give for `Cc1ccccc1Cn1c(Cc2ccccc2)nc2ccccc21` here?
A: 31.6 µM (inconclusive)

Q: What about the AC50 [4] of the same compound?
A: 17.8 µM (inconclusive)

Q: What about the AC50 [7] of the same compound?
A: 31.6 µM (inconclusive)

Q: Which CC50 [1] does the source give for `Cc1ccccc1N(C(=O)Cn1nnc(-c2cccs2)n1)C(C(=O)NCCC(C)C)c1ccco1` (stereo not drawn) here?
A: 40.4 µM (active)

Q: For `CC[n+]1c(/C=C/N(C)c2ccccc2)oc2ccccc21`, which EC50 [8] is on record?
A: > 150 µM (inactive)

Q: What about the EC50 [9] of the same compound?
A: 3.58 µM (active)

Q: What about the EC50 [13] of the same compound?
A: 16.9 µM (active)

Q: And the EC50 [14]?
A: 0.258 µM (active)

Q: Which AC50 [5] does the source give for `Cc1noc(C)c1C(=O)N1CCC2(CC1)CCN(c1ccncc1)CC2` here?
A: 3.98 µM (inconclusive)

Q: What about the AC50 [7] of the same compound?
A: 12.6 µM (inconclusive)

Q: With `CCCOc1ccc(NC(=O)CC2C(=O)N(CC)C(=S)N2Cc2cccs2)cc1` (stereo not drawn) as the compound, how does the IC50 [11] read?
A: 12.4 µM (active)

Q: What about the IC50 [12] of the same compound?
A: 10.9 µM (active)

Q: Which results are given for `CN(CCC#N)C(=O)c1ccc(CNS(=O)(=O)c2ccc(F)cc2)cc1`?
A: AC50 [10]: 10 µM (inconclusive); AC50 [5]: 0.112 µM (inconclusive); AC50 [4]: 2 µM (inconclusive)

Q: Which CC50 [1] does the source give for `Nc1ccc(C#Cc2c(-c3ccsc3)oc3ccc(N4CCOCC4)cc23)cc1` here?
A: 31.5 µM (active)

Q: Which IC50 [11] does the source give for `O=C(Nn1c(-c2ccc(Br)cc2)nc2ccccc2c1=O)c1ccc([N+](=O)[O-])cc1` here?
A: 8.68 µM (active)

Q: And the IC50 [12]?
A: 7.74 µM (active)

Q: What does the source list for `O=C(NNc1ccc([N+](=O)[O-])cc1)c1ccccc1Cl`?
A: EC50 [8]: > 150 µM (inactive); EC50 [9]: > 38 µM (not active)

Q: For `CN(C)c1ncc2nc(-c3cccc(C#N)c3)c(=O)n(C[C@H]3CCCO3)c2n1`, which AC50 [4] is on record?
A: 3.16 µM (inconclusive)

Q: And the AC50 [7]?
A: 2.51 µM (inconclusive)
